“And” between values parts separate entries of the source, which are not always exact repeats. Equal entries are not always repeated.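 Exposure lasted 48 hours, with cells grown in 96-well plates and compounds tested at five concentrations. Here, GI50 denotes the concentration required for 50% inhibition of growth. TGI: total growth inhibition.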
Legend:
Assay in all cases: NCI anticancer screen, dose series, 48 h
[1] = system: SNB-75 CNS
[2] = system: NCI-H23 lung
[3] = system: SN12C renal
[4] = system: UACC-257 melanoma
[5] = system: 786-0 renal
[6] = system: K-562 leukemia
[7] = system: SW-620 colon
[8] = system: EKVX NSCLC
[9] = system: CAKI-1 renal
[10] = system: HOP-92 NSCLC

| SMILES | TGI [1] | TGI [2] | TGI [3] | TGI [4] | TGI [5] | TGI [6] | TGI [7] | TGI [8] | TGI [9] | TGI [10] | GI50 [1] | GI50 [3] | GI50 [4] | GI50 [6] | GI50 [9] | GI50 [10] | GI50 [2] | GI50 [5] | GI50 [7] | GI50 [8] |
| --- | --- | --- | --- | --- | --- | --- | --- | --- | --- | --- | --- | --- | --- | --- | --- | --- | --- | --- | --- | --- |
| O=C(O)c1ccccc1NCn1c(=S)sc2ccccc21 | > 100 µM | 63.4 µM | > 100 µM | > 100 µM | > 100 µM | > 100 µM | > 100 µM | > 100 µM | > 100 µM | > 100 µM |  |  |  |  |  |  |  |  |  |  |
| COc1cc2c3cc1Oc1c(OC)c(OC)cc4c1C(Cc1ccc(O)c(c1)Oc1ccc(cc1)CC3N(C)CC2)N(C)CC4 (stereo not drawn) | 52.7 µM and 24 µM | 31.1 µM and > 100 µM | 47.1 µM and > 100 µM | > 100 µM and 18.9 µM | > 100 µM and 33.3 µM | > 100 µM and 12.9 µM | > 100 µM and 33.4 µM | > 100 µM | 48.5 µM and 40.6 µM | 94.2 µM and 41.1 µM | 11.3 µM | 23.4 µM | 5.99 µM | 2.04 µM | 14 µM | 17.2 µM |  |  |  |  |
| C[As](C)SC1OCC(O)C(O)C1O (stereo not drawn) | 2.36 µM | 1.76 µM | 0.868 µM | 7.22 µM | 0.545 µM | 0.378 µM | 1.59 µM | 6.23 µM | 0.273 µM | 2.07 µM | 0.805 µM | 0.226 µM | 1.43 µM | 0.0495 µM | 0.0514 µM | 0.283 µM | 0.281 µM | 0.0708 µM | 0.217 µM | 1.29 µM |
| CCCCCCCCCCCCCCCC[n+]1ccccc1 | 1.72 µM and 2.78 µM | 1.43 µM | 1.9 µM | 1.95 µM and 4.67 µM | 1.91 µM | 1.64 µM | 1.57 µM and 1.94 µM | 2.09 µM | 3.38 µM and 10.2 µM | 0.753 µM and 1.4 µM | 0.528 µM and 0.609 µM | 0.563 µM | 0.534 µM and 1.56 µM | 0.278 µM | 0.616 µM and 1.13 µM | 0.21 µM and 0.335 µM | 0.295 µM | 0.548 µM | 0.391 µM and 0.488 µM | 0.453 µM |
| COc1cc2c3c(n(CCCNCCCNCCCN)c(=O)c2cc1OC)-c1cc2c(cc1C3=O)OCO2 | > 100 µM | > 100 µM | > 100 µM | > 100 µM | > 100 µM |  | > 100 µM | > 100 µM | > 100 µM | > 100 µM | 12.8 µM | 32.9 µM | > 100 µM |  | 26.3 µM | > 100 µM | 13.5 µM | 69.5 µM | 82.5 µM | > 100 µM |
| COc1cc2c(c(OC)c1OC)C(=O)NCCC2 | > 100 µM | > 100 µM | > 100 µM | > 100 µM | > 100 µM | > 100 µM | > 100 µM | > 100 µM | > 100 µM | > 100 µM |  |  |  |  |  |  |  |  |  |  |
| Cc1nc2ccccc2c(=O)n1/N=C(\N=Nc1cc(Cl)ccc1Cl)c1ccccc1 | 74.1 µM | > 100 µM | > 83.3 µM | 66 µM | > 100 µM | > 100 µM | > 73.8 µM | > 100 µM | > 100 µM | > 100 µM |  |  |  |  |  |  |  |  |  |  |
| Nc1ccccc1C#Cc1ccccc1C#Cc1cccs1 | > 100 µM | 34.1 µM | 29.1 µM | 53.2 µM | 31 µM | 40.7 µM | 41.1 µM | 48.5 µM | 25.1 µM | 22.2 µM | 82.7 µM | 14.5 µM | 18.1 µM | 15.5 µM | 11 µM | 5.87 µM | 17.2 µM | 16.3 µM | 18 µM | 18 µM |
| O=C1CCC(=O)N1Sc1ccccc1 | > 100 µM | > 100 µM | > 100 µM | > 100 µM | > 100 µM | > 100 µM | > 100 µM | > 100 µM | > 100 µM | > 100 µM |  |  |  |  |  |  |  |  |  |  |
| O=c1[nH]cnc2n[nH]nc12 | > 69.8 µM | > 100 µM | > 100 µM | > 100 µM | > 100 µM | > 100 µM | > 100 µM | > 100 µM | > 100 µM | > 100 µM |  |  |  |  |  |  |  |  |  |  |
| OCC(O)C(O)C(O)C(O)c1nnc2c(-c3ccccc3)nc3ccccc3n12 (stereo not drawn) | > 100 µM | > 100 µM | > 100 µM | > 100 µM | > 100 µM | > 100 µM | > 100 µM | > 100 µM | > 100 µM | > 100 µM | > 100 µM | > 100 µM | > 100 µM | 78.3 µM | > 100 µM | > 100 µM | > 100 µM | > 100 µM | > 100 µM | > 100 µM |
| O=C(/C=C/c1ccccc1O)c1ccccc1Cl | 68.8 µM | > 100 µM | > 100 µM | > 100 µM | > 100 µM | > 100 µM | > 100 µM | > 100 µM | > 100 µM | > 100 µM |  |  |  |  |  |  |  |  |  |  |
| CC1(C)C2CCC13C(=O)C1OC3(C2)C2C(=O)c3c(ccc4c3ccc3ccccc34)C(=O)C12 (stereo not drawn) | > 100 µM | > 81.5 µM | > 100 µM | > 70.5 µM | > 70.3 µM | 82.1 µM | > 100 µM | > 100 µM | 80.1 µM | > 100 µM | > 65.8 µM | > 73.3 µM | > 29.2 µM | 1.12 µM | 20 µM | > 100 µM | > 48.4 µM | > 36.3 µM | 56.5 µM | > 66.3 µM |
| CC[C@H]1OC(=O)[C@H](C)[C@@H](O[C@H]2C[C@@](C)(OC)[C@@H](O)[C@H](C)O2)[C@H](C)[C@@H](O[C@@H]2O[C@H](C)C[C@H](N(C)C)[C@H]2O)[C@](C)(OC)C/C(C)=C2/O[C@@]1(C)C=C2C | 2.64 µM | 3.63 µM | 3.02 µM | 3.62 µM | 3.16 µM | 4.8 µM | 3.42 µM | 3.26 µM | 2.93 µM | 3.82 µM | 1.27 µM | 1.64 µM | 1.83 µM | 1.56 µM | 1.51 µM | 1.57 µM | 1.96 µM | 1.64 µM | 1.78 µM | 1.71 µM |
| COc1ccc(/C=N/NS(=O)(=O)c2ccccc2)cc1 | > 100 µM | > 100 µM | > 100 µM | > 100 µM | > 100 µM | > 100 µM | > 100 µM | > 100 µM | > 100 µM | > 100 µM |  |  |  |  |  |  |  |  |  |  |
| O=C(O)CCCCC1CCSS1 (stereo not drawn) | > 100 µM | > 100 µM |  | > 100 µM | > 100 µM | > 100 µM | > 100 µM | > 100 µM | > 100 µM | > 100 µM |  |  |  |  |  |  |  |  |  |  |
